Measurements from paper PMC8411975, “Frag4Lead: growing crystallographic fragment hits by catalog using fragment-guided template docking” (Acta Crystallographica. Section D, Structural Biology, 2021).
Read-outs that look alike come from different tables or passages of the source.

Legend:
[1] = Stability of synthesized compound on exposure to air; format: physicochemical; conditions: exposed to air at room temperature over a longer period of time
[2] = Solubility noted during ITC sample preparation; format: physicochemical; conditions: ITC buffer, 0.1 M sodium acetate pH 4.6, 3%(v/v) DMSO
Procedure: (§1) ITC experiments were conducted similarly to the procedure desribed by Schiebel, Radeva et al. (2016[▸]) on a MicroCal ITC200 (Malvern) instrument. All buffer solutions for ITC were prepared with the same batch of buffer as used to isolate the batch of EP. Details of the ITC experiments, including the protein and ligand concentrations for each experiment, are listed in Supplementary Table S2. […] All displacement titrations were conducted as single measurements, except for that of FU5-2 (n = 3). The affinities of the stronger binding follow-up ligands were determined by direct ITC titrations. For this, 1 mM compound in a buffer solution consisting of 0.1 M sodium acetate pH 4.6, 3%(v/v) DMSO was titrated into the same buffer additionally containing 50 µM EP to a final stoichiometry of N = 4.

endothiapepsin (EP) [3] = biological target: T1, endothiapepsin (EP) (Cryphonectria parasitica, UniProt P11838); experiment: Isothermal titration calorimetry (direct or SAP114-displacement titration) against EP; format: binding; conditions: for fold affinity increase compared with the starting fragment: ITC Kd of follow-up versus Kd of its starting fragment; for LE (ligand efficiency): from ITC Kd; for Kd: read-out: Kd determined by ITC
T1 sequence (P11838 90-419): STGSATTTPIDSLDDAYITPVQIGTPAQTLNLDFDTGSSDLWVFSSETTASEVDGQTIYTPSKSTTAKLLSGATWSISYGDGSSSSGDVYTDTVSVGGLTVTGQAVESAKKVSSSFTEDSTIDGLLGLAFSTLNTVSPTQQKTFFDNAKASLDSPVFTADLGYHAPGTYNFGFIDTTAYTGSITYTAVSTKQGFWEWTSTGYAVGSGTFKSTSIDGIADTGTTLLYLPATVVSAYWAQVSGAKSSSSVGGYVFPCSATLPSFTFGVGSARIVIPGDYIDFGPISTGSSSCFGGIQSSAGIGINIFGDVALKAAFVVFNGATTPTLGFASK
Procedure: as §1
The obtained thermogram peaks of all titrations (Supplementary Fig. S4) were integrated with Nitpic 1.1.8 (Keller et al., 2012[▸]). Subsequently, fitting of a single-site binding-model isotherm was performed using SEDPHAT 10.58d (Houtman et al., 2007[▸]). For the errors of the fit, see Supplementary Table S3. […] During the fit, ΔH was corrected for the heat of dilution, which was individually fitted for each experiment. The stoichiometry was arbitrarily fixed at the anticipated stoichiometry of N = 1 as appropriate for the present low c-value titrations (Rühmann et al., 2015[▸]).
Table S2. Details of ITC measurements.
Follow-Up Titration Concentration Ligand Concentration Final Stoichiometry
Compound Type in Cell Concentration in Syringe (Ligand:Protein)
[a] 0.1% (v/v) Tween 20 in s yringe and cell.
Table S3. Fitting statistics for ITC titration curves
Compound Global reduced chi-square[a] local rmsd[a] (B:A) n[c] Kd [µM] (SD)[d]
Isotherm fitting statistics of ITC data, anal yzed vi a SEDPHAT 10.58d (Houtman et al., 2007).
[a] Goodness of fit p arameters (glob al reduced chi-squ are and wei ghted local rmsd)
[b] Stochiometry o f the ligand protein A and t he ligand B at the infl ection point of the
[c] Number of used data points corresponding to injections of the ITC ex periment

endothiapepsin (EP) [4] = biological target: T1, endothiapepsin (EP); set-up: method as in Schiebel, Radeva et al. (2016); conditions: starting fragments, ref Schiebel, Radeva et al. (2016), cited from earlier work; for Kd: read-out: Kd (dissociation constant of the compound from EP)
endothiapepsin (EP) [5] = biological target: T1, endothiapepsin (EP); experiment: Compound soaking into EP crystals and X-ray crystal structure determination; format: binding; conditions: soaking at 100 mM or supernatant, 16–22 h
Procedure: The follow-up compounds (a full list, including providers and purities, if known, is given in Supplementary Table S1) were directly dissolved in a soaking solution consisting of 68.2 mM sodium acetate pH 4.6, 68.2 mM ammonium acetate pH 7.0, 16.9%(w/v) PEG 4000, 19.3%(v/v) glycerol, 9.09%(v/v) DMSO to a concentration of 100 mM. For poorly soluble follow-up compounds, crystals were soaked in the supernatant of the solution. After incubation for 16–22 h the crystals were flash-cooled in liquid nitrogen and stored for diffraction data collection.
All data collections were carried out on beamlines BL14.1 and BL14.2 of the BESSY II electron-storage ring operated by the Helmholtz-Zentrum Berlin (HZB; Mueller et al., 2015[▸]). Typically, 360° of data were collected in 0.1° increments using an exposure time of 0.1 s. Data were automatically processed using XDSAPP (Sparta et al., 2016[▸]).
All structures were refined using the automated script fspipeline, which is based on Schiebel, Krimmer et al. (2016[▸]). The starting model was based on PDB entry 4y5l (Schiebel, Krimmer et al., 2016[▸]), from which all ligands and water molecules were removed. Electron-density maps and coordinate files obtained from the automated refinement were inspected manually for each experiment to judge the presence or absence of the expected ligand in the difference electron density. Subsequently, the identified hits were subjected to several rounds of alternating model building in Coot (Emsley et al., 2010[▸]) and refinement in Phenix (Liebschner et al., 2019[▸]) before and after ligand placement. For all follow-up ligands, occupancy refinement was carried out. Refined models and the corresponding electron-density maps were submitted to the PDB under group deposition ID G_1002201.

SMILES	LE (ligand efficiency) (endothiapepsin (EP) [3]) [kcal mol^−1 per atom]	Kd (endothiapepsin (EP) [3]) [µM]	LE (ligand efficiency, binding energy per non-H atom) (endothiapepsin (EP) [4]) [kcal mol^−1 per atom]	Kd (endothiapepsin (EP) [4]) [µM]	binding observed in crystal structure after soaking (endothiapepsin (EP) [5])	other results
NC1=N/C(=N\Nc2ccccc2)c2ccccc21 [FU5-1]	–	–	–	–	–	stability of the compound [1]: decomposition; solubility [2]: poor solubility
N=C(N)SCc1ccc(CSC(=N)N)cc1 [FU290-1]	0.44	7.2	–	–	–	fold affinity increase compared with the starting fragment (endothiapepsin (EP) [3]): 14 fold
NCc1ccc(-c2ccco2)nc1 [F066]	–	–	0.35	400	–	–
N=C(N)SCc1ccc(Cl)cc1 [F290]	–	–	0.45	100	–	–
Cc1noc(C)c1CN(C)Cc1cc2n(n1)CCN(c1cc(N)ncn1)C2 [FU58-1]	0.17	450	–	–	observed in crystal structures	fold affinity increase compared with the starting fragment (endothiapepsin (EP) [3]): about 20 fold
N=C(N)N/N=C1\N=C(N)c2ccccc21 [FU5-4]	0.31	400	–	–	–	–
Cc1cc(CN)n(C)n1 [F058]	–	–	0.31	8800	–	–
Oc1nc(-c2ccco2)ccc1CN(Cc1ccccn1)C1CC1 [FU66-1]	0.21	160	–	–	observed in the crystal structure	–
NC1=NC(=O)c2ccccc21 [FU5-3]	0.39	740	–	–	retained the binding pose of F005	–
O=C(CN1CCCCC1)Nc1ccc2c(c1)OCO2 [F041]	–	–	0.22	900	–	–
CN(C)CCNC(=O)c1cc2n(n1)CCN(c1ccnc(N)n1)C2 [FU58-2]	–	–	–	–	observed in crystal structures	–
CC(SC(=N)N)c1ccc(Cl)cc1 (stereo not shown) [FU290-2]	0.40	160	–	–	–	–
N=C1N=C(N)c2ccccc21 [FU5-2]	0.37	970	–	–	retained the binding pose of F005	–
NC1=NCc2ccccc21 [F005]	–	–	0.38	1700	–	–
CSc1ccc(CN(CCO)Cc2cc(C)nn2C)cc1 [FU58-3]	0.19	1040	–	–	observed in crystal structures	–
CSc1ccc(CNCCO)cc1 [FU58-3b, 2-{[4-(methylthio)benzyl]amino}ethan-1-ol]	–	–	–	–	identified in the electron density	–
